Each structure is given as a SMILES string. Read-outs that look alike come from different tables or passages of the source.

One may read the inhibition as the share of the control response that was lost under treatment. In general, chromatographic logP refers to a lipophilicity value derived from retention on a column.

The subject of one data set is Leptnosphaeria nodorum. The experiment in a line: Example D: Leptnosphaeria nodorum in vitro cell test. The class given is cell-based. Particulars: 144 h, read-out: efficacy (inhibition of fungal growth).
The test system of the next data set is Pyricularia oryzae. Briefly: microbe, parasite or virus in culture. The class given is cell-based. The note with it: 120 h, read-out: efficacy (inhibition of fungal growth).
Data set [1] is described as follows: Log P by HPLC on reversed phase columns, method [a] (acidic range, 0.1% formic acid).
Procedure: In the following, measurement of Log P values was performed according to EEC directive 79/831 Annex V.A8 by HPLC (High Performance Liquid Chromatography) on reversed phase columns with the following methods: • ^[a]
If more than one Log P value is available within the same method, all the values are given and separated by “+”.
Calibration was done with straight-chain alkan2-ones (with 3 to 16 carbon atoms) with known Log P values (measurement of Log P values using retention times with linear interpolation between successive alkanones).
The test system of data set [2] is Colletotrichum lindemuthianum. The experiment in a line: Example F: Colletotrichum lindemuthianum in vitro cell test. The class given is cell-based. The note with it: 144 h, 20 ppm of active ingredient, 6 days incubation, read-out: efficacy (inhibition of fungal growth).
The subject of a further data set is Botrytis cinerea. The experiment in a line: Example H: comparative data, in vivo preventive test on Botrytis cinerea (grey mould), gherkin. Particulars: rate of application 500 ppm, evaluated 4 to 5 days after inoculation.
Setting [3] is: logP, HPLC on reversed phase columns, method [a]: acidic range.
The mark [4] stands for this setting: LogP, method [a] / Method A: LC-UV, acidic range.
Setting [5] is: 20 ppm of active ingredient, 6 days incubation.

For the molecule `Cc1nc2c(F)c(F)ccc2cc1Nc1ccccc1-c1ccn(C(C)C)n1` [Example I-043, 7,8-difluoro-N-[2-(1-isopropylpyrazol-3-yl)phenyl]-2-methyl-quinolin-3-amine], the figures for the inhibition at 20 ppm with Leptnosphaeria nodorum and in the data set with Pyricularia oryzae were 80 to 89% and 90 to 100%, respectively. This molecule showed a chromatographic logP in data set [1] (setting [3]) of 5.
Regarding `Cc1nc2c(F)c(F)ccc2cc1N(C)c1ccccc1-c1ccn(C(C)C)n1` [Example I-046, 7,8-difluoro-N-[2-(1-isopropylpyrazol-3-yl)phenyl]-N,2-dimethyl-quinolin-3-amine], in the data set with Pyricularia oryzae, the inhibition at 20 ppm lay in the range of 80 to 89%. Also, the chromatographic logP in data set [1] (setting [4]) and in data set [1] (setting [3]) was 4.36 throughout.
As to `Cc1nc2c(F)c(F)ccc2cc1Nc1cccc(F)c1-c1ccnn1C` [Example I-050, 7,8-difluoro-N-[3-fluoro-2-(1-methyl-1H-pyrazol-5-yl)phenyl]-2-methylquinolin-3-amine], the inhibition at 20 ppm (with Leptnosphaeria nodorum (setting [5]); with Pyricularia oryzae; in data set [2]) was 90 to 100% throughout. Also, the values for the chromatographic logP in data set [1] (setting [4]) and in data set [1] (setting [3]) were 3.07 and 3.09, respectively.
As to `COC(=O)c1ccn(-c2ccccc2Nc2cnc3ccccc3c2)n1` [Example I-062, methyl 1-[2-(3-quinolylamino)phenyl]pyrazole-3-carboxylate], the chromatographic logP in data set [1] (setting [4]) and in data set [1] (setting [3]) was 2.16 throughout.
Turning to `COC(=O)c1ccnn1-c1ccccc1Nc1cnc2ccccc2c1` [Example I-064, methyl 1-[2-(quinolin-3-ylamino)phenyl]-1H-pyrazole-5-carboxylate], the results for the inhibition at 20 ppm (in the data set on Leptnosphaeria nodorum (setting [5]); in data set [2]) were 70 to 79% and 80 to 89%, respectively. Besides, the chromatographic logP in data set [1] (setting [4]) and in data set [1] (setting [3]) was 2.02 in each case.
Regarding `CC(C)(C)[Si](C)(C)OCc1ccnn1-c1ccccc1Nc1cnc2ccccc2c1` [Example I-069, N-{2-[5-({[tert-butyl(dimethyl)silyl]oxy}methyl)-1H-pyrazol-1-yl]phenyl}quinolin-3-amine], the inhibition at 20 ppm in the data set with Leptnosphaeria nodorum (setting [5]) lay in the range of 80 to 89%. Moreover, the chromatographic logP in data set [1] (setting [4]) and in data set [1] (setting [3]) was 4.92 throughout.
As to `CCn1nccc1-c1ccccc1Nc1cnc2c(F)cccc2c1` [Example I-080, N-[2-(1-ethyl-1H-pyrazol-5-yl)phenyl]-8-fluoroquinolin-3-amine], the inhibition at 20 ppm was in the range of 90 to 100% in the data set on Leptnosphaeria nodorum (setting [5]), 80 to 89% in the data set on Pyricularia oryzae and 90 to 100% in data set [2]. In addition, the chromatographic logP in data set [1] (setting [4]) is 2.82; in data set [1] (setting [3]), 2.84.
For the molecule `Cc1nc2ccccc2nc1Nc1cccc(F)c1-c1ccnn1C` [Example I-083, N-[3-fluoro-2-(1-methyl-1H-pyrazol-5-yl)phenyl]-3-methylquinoxalin-2-amine], the inhibition at 20 ppm (in the data set on Leptnosphaeria nodorum (setting [5]); in the data set with Pyricularia oryzae; in data set [2]) was 90 to 100% throughout. For the same molecule, the chromatographic logP in data set [1] (setting [4]) and in data set [1] (setting [3]) was 2.82 each time.
Regarding `Fc1cccc2cc(Nc3ccccc3-c3ccnn3Cc3ccccc3)cnc12` [Example I-096, N-[2-(1-benzyl-1H-pyrazol-5-yl)phenyl]-8-fluoroquinolin-3-amine], the inhibition at 20 ppm (in the data set with Leptnosphaeria nodorum (setting [5]); with Pyricularia oryzae; in data set [2]) was 90 to 100% throughout. The chromatographic logP in data set [1] (setting [4]) and in data set [1] (setting [3]) was 3.49 throughout.
In data set [1] (setting [4]), `Cn1nccc1-c1c(F)cccc1Br` [IXa-01, 5-(2-bromo-6-fluorophenyl)-1-methyl-1H-pyrazole] came in with a chromatographic logP of 2.4.
The molecule `CC(C)n1nccc1-c1c(F)cccc1Br` [IXa-02, 5-(2-bromo-6-fluorophenyl)-1-isopropyl-1H-pyrazole] yielded a chromatographic logP in data set [1] (setting [4]) of 3.09.
Still for that read-out and setting: in the case of `CC(C)(C)n1nccc1-c1c(F)cccc1Br` [IXa-03, 5-(2-bromo-6-fluorophenyl)-1-tert-butyl-1H-pyrazole] it was 3.61; in that of `CCn1nccc1-c1c(F)cccc1Br` [IXa-04, 5-(2-bromo-6-fluorophenyl)-1-ethyl-1H-pyrazole], 2.71.
As to `Fc1cccc(Br)c1-c1ccnn1CCc1ccccc1` [IXa-05, 5-(2-bromo-6-fluorophenyl)-1-(2-phenylethyl)-1H-pyrazole], the chromatographic logP in data set [1] (setting [4]) was determined as 3.83.
Still for that read-out and setting: with `OCc1ccnn1-c1c(F)cccc1Br` [IXb-01, [1-(2-bromo-6-fluorophenyl)-1H-pyrazol-5-yl]methanol] the figure was 1.27.
Regarding `CC(C)(C)[Si](C)(C)OCc1ccnn1-c1c(F)cccc1Br` [IXb-02, 1-(2-bromo-6-fluorophenyl)-5-({[tert-butyl(dimethyl)silyl]oxy}methyl)-1H-pyrazole], the chromatographic logP in data set [1] (setting [4]) was 4.96.
Regarding `COC(=O)c1ccnn1-c1c(F)cccc1Br` [IXb-03, methyl 1-(2-bromo-6-fluorophenyl)-1H-pyrazole-5-carboxylate], the chromatographic logP in data set [1] (setting [4]) turned out to be 2.53.
In data set [1] (setting [4]), `CC(C)(C)[Si](C)(C)OCc1ccnn1-c1c(N)cccc1F` [IXb-04, 2-[5-({[tert-butyl(dimethyl)silyl]oxy}methyl)-1H-pyrazol-1-yl]-3-fluoroaniline] returned a chromatographic logP of 4.1.
Same read-out and setting: with `Fc1cccc2cc(Nc3ccccc3Br)cnc12` [N-(2-bromophenyl)-8-fluoro-quinolin-3-amine] the figure was 3.27; with `CC1(C)OB(c2ccccc2Nc2cnc3c(F)cccc3c2)OC1(C)C` [VI-01, 8-fluoro-N-[2-(4,4,5,5-tetramethyl-1,3,2-dioxaborolan-2-yl)phenyl]quinolin-3-amine], 4.87.
Same read-out and setting: with `CC1(C)OB(c2ccccc2Nc2cnc3ccccc3c2)OC1(C)C` [VI-02, N-[2-(4,4,5,5-tetramethyl-1,3,2-dioxaborolan-2-yl)phenyl]quinolin-3-amine] the figure was 4.29; with `CC1(C)OB(c2ccccc2Cc2cnc3ccccc3c2)OC1(C)C` [VI-03, 3-[2-(4,4,5,5-tetramethyl-1,3,2-dioxaborolan-2-yl)benzyl]quinoline], 3.39; with `CC(C)(C)OC(=O)N(c1cnc2ccccc2c1)c1ccccc1-n1nccc1C(=O)O` [XX-01, 1-{2-[(tert-butoxycarbonyl)(quinolin-3-yl)amino]phenyl}-1H-pyrazole-5-carboxylic acid], 2.42.
Still for that read-out and setting: in the case of `CC(C)(C)OC(=O)N(c1cnc2ccccc2c1)c1cccc(F)c1-n1nccc1C(=O)O` [XX-02, 1-{2-[(tert-butoxycarbonyl)(quinolin-3-yl)amino]-6-fluorophenyl}-1H-pyrazole-5-carboxylic acid] it was 2.62.
`COC(=O)c1ccnn1-c1c(F)cccc1N(C(=O)OC(C)(C)C)c1cnc2ccccc2c1` [XX-03, methyl 1-{2-[(tert-butoxycarbonyl)(quinolin-3-yl)amino]-6-fluorophenyl}-1H-pyrazole-5-carboxylate] returned a chromatographic logP in data set [1] (setting [4]) of 3.36.
Same read-out and setting: in the case of `C=C(C)c1ccnn1-c1ccccc1N(C(=O)OC(C)(C)C)c1cnc2ccccc2c1` [XX-04, tert-butyl {2-[5-(prop-1-en-2-yl)-1H-pyrazol-1-yl]phenyl}quinolin-3-ylcarbamate] it was 3.67.
Still for that read-out and setting: in the case of `COC(=O)c1ccnn1-c1ccccc1N(C(=O)OC(C)(C)C)c1cnc2ccccc2c1` [XX-05, Methyl 1-(2-(tert-butoxycarbonyl(quinolin-3-yl)amino)phenyl)-1H-pyrazole-5-carboxylate] it was 3.19; in that of `CC(C)(C)OC(=O)N(c1cnc2ccccc2c1)c1ccccc1-n1nccc1C=O` [XX-06, tert-butyl [2-(5-formyl-1H-pyrazol-1-yl)phenyl]quinolin-3-ylcarbamate], 3.06.
As to `CC(C)(C)OC(=O)N(c1cnc2ccccc2c1)c1ccccc1-n1nccc1CO[Si](C)(C)C(C)(C)C` [XX-07, tert-butyl {2-[5-({[tert-butyl(dimethyl)silyl]oxy}methyl)-1H-pyrazol-1-yl]phenyl}quinolin-3-ylcarbamate], in data set [1] (setting [4]), the chromatographic logP stood at 5.84.
Consider `CC(C)(C)OC(=O)N(c1cnc2ccccc2c1)c1cccc(F)c1-n1nccc1CO` [XX-08, tert-butyl {3-fluoro-2-[5-(hydroxymethyl)-1H-pyrazol-1-yl]phenyl}quinolin-3-ylcarbamate], for which the chromatographic logP in data set [1] (setting [4]) turned out to be 2.47.
Same read-out and setting: with `CC(C)(C)OC(=O)N(c1cnc2ccccc2c1)c1cccc(F)c1-n1nccc1CO[Si](C)(C)C(C)(C)C` [XX-09, tert-butyl {2-[5-({[tert-butyl(dimethyl)silyl]oxy}methyl)-1H-pyrazol-1-yl]-3-fluorophenyl}quinolin-3-ylcarbamate] the figure was 5.8.
Still for that read-out and setting: in the case of `CC(C)(C)OC(=O)N(c1cnc2ccccc2c1)c1cccc(F)c1-n1nccc1C=O` [XX-10, tert-butyl [3-fluoro-2-(5-formyl-1H-pyrazol-1-yl)phenyl]quinolin-3-ylcarbamate] it was 3.24.
On the same count and under the same terms, with `CC(C)(C)OC(=O)N(c1cnc2ccccc2c1)c1cccc(F)c1-n1nccc1C(C)(C)O` [XX-11, tert-butyl {3-fluoro-2-[5-(2-hydroxypropan-2-yl)-1H-pyrazol-1-yl]phenyl}quinolin-3-ylcarbamate] the figure was 3.33; with `CC(C)(C)OC(=O)N(c1cnc2ccccc2c1)c1ccccc1-n1nccc1CO` [XX-12, tert-butyl {2-[5-(hydroxymethyl)-1H-pyrazol-1-yl]phenyl}quinolin-3-ylcarbamate], 2.35.
Take `C=C(C)c1ccnn1-c1ccccc1Oc1cnc2ccccc2c1` [drawing 46, reference compound]: the Efficacy in % with Botrytis cinerea is listed as 20%.
On the same count and under the same terms, with `CC(C)n1ccc(-c2c(F)cccc2Oc2cnc3ccccc3c2)n1` [drawing 47, reference compound] the figure was 68%.

For the origin of these results see patent publication US11457629B2, “Heteroarylphenylaminoquinolines and analogues” (Bayer Aktiengesellschaft, priority 2017, dated 2022).
